The results in this text go back to PubChem BioAssay (NCI).

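Dose response: 5 concentrations. Exposure: 48 h. Format: 96-well plates. Endpoint: linear interpolation; highest concentration if not reached. The concentration for full growth arrest is given as TGI.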

What all share (experiment): NCI tumour cell line growth inhibition, 48 h
Experiment [1] concerns HT29 colon.
The subject of experiment [2] is T-47D breast.
Experiment [3] has as its system SK-MEL-28 melanoma.
The subject of experiment [4] is KM12 colon.
The subject of experiment [5] is HCT-15 colon.
Experiment [6] deals with HL-60(TB) leukemia.
Experiment [7] concerns NCI-H522 lung.
Experiment [8] deals with SK-OV-3 ovarian.
The test system of experiment [9] is IGROV1 ovarian.
Experiment [10] relates to OVCAR-8 ovarian.
Experiment [11] has as its system OVCAR-3 ovarian.
In experiment [12] the test system is MCF7 breast.
For experiment [13], the system named is LOX IMVI melanoma.
For experiment [14], the system named is A549 NSCLC.
The subject of experiment [15] is SF-268 CNS.
Experiment [16] has as its system A498 renal.
Experiment [17] has as its system HCC-2998 colon.
Experiment [18] has as its system NCI-H23 lung.
Experiment [19] deals with MDA-MB-435.
For experiment [20], the system named is HCT-116 colon.

As for `CC1CC(=NC2CCCCC2)Nc2ccccc2N1Cc1ccccc1` (stereo not given), the TGI worked out at 12.5 µM in experiment [1]; 20.7 µM in experiment [2]; 17.7 µM in experiment [3]; 17 µM in experiment [4]; 19.1 µM in [5]; 20.2 µM in experiment [6]. The TGI in experiment [7] was determined as 13.6 µM; in [8], 23.4 µM; in experiment [9], 8.61 µM; in experiment [10], 19.8 µM; in [11], 20.4 µM; in [12] it was 14.5 µM. The TGI in experiment [13] was determined as 6.85 µM; in experiment [14], 16.5 µM; in experiment [15], 17.3 µM; in experiment [16], 9.7 µM; in experiment [17], 11.5 µM; in experiment [18], 22.3 µM. Moreover, the TGI is 13.4 µM in experiment [19] and over 35.6 µM in [20].
`C=CCSC1=N/C(=C\c2ccc(OC)cc2)C(=O)N1CC=C`: the TGI in experiment [1] is over 100 µM; in [2], over 100 µM; in experiment [3], over 100 µM; in [4] it was 71.7 µM; in [5], over 100 µM; in [6], 34.8 µM. Also, the TGI in experiment [7], in [8], in experiment [9], in experiment [10], in experiment [11] and in experiment [12] was over 100 µM throughout. Further, the TGI in [13] is over 100 µM; in experiment [14] it was over 100 µM; in experiment [15], over 100 µM; in experiment [16], 66.6 µM; in experiment [17], 79.7 µM; in experiment [18] it was over 100 µM. The TGI in [19] and in [20] was over 100 µM in each case.
As for `c1ccc(C2=NN=C3C(c4ccccc4)=Nc4ccccc4N3C2)cc1`, the TGI was over 69.6 µM in [1]; over 100 µM in experiment [2]; over 100 µM in experiment [3]; over 100 µM in [4]; over 100 µM in experiment [5]; 22.2 µM in [6]. Also, the TGI in experiment [7] was 22.8 µM; in experiment [8], over 100 µM; in experiment [9], over 100 µM; in experiment [10] it was over 100 µM; in experiment [11] it was over 24.5 µM; in [12], over 77.4 µM. Besides, the TGI in [13] was over 100 µM; in [14], over 100 µM; in experiment [15], over 60.2 µM; in experiment [16] it was over 100 µM; in [17], over 100 µM; in [18], over 100 µM. For the same compound, the TGI in experiment [19] was 98.7 µM; in experiment [20], over 95.6 µM.
`CC(NP(=O)(c1ccccc1)c1ccccc1)c1ccccc1` (stereo not given): the TGI in [1], in experiment [2], in experiment [3], in [4], in experiment [5] and in [6] was over 100 µM throughout. The TGI in [7], in experiment [8], in experiment [9], in [10], in experiment [11] and in [12] was over 100 µM throughout. Moreover, the TGI in experiment [13], in experiment [14], in [15], in experiment [16], in [17] and in experiment [18] was over 100 µM throughout. The TGI in experiment [19] and in [20] was over 100 µM each time.
Turning to `CSC1(C(=O)O)C2CCC3C2CCC31` (stereo not given), the TGI in [1], in experiment [2], in experiment [3], in experiment [4], in [5] and in experiment [6] was over 100 µM in each case. Besides, the TGI in [7], in experiment [8], in experiment [9], in experiment [10], in [11] and in [12] was over 100 µM throughout. Further, the TGI in experiment [13], in [14], in experiment [15], in experiment [16], in [17] and in experiment [18] was over 100 µM throughout. The TGI in experiment [19] and in [20] was over 100 µM throughout.
In the case of `CCOC(=O)c1csc(C(CSCc2ccc(OC)cc2)N2C(=O)c3ccccc3C2=O)n1` (stereo not given), the TGI in experiment [1], in experiment [2], in experiment [3], in experiment [4], in experiment [5] and in [6] was over 100 µM each time. The TGI in experiment [7] is 58.4 µM; in [8], over 100 µM; in [9], over 100 µM; in experiment [10] it was over 100 µM; in experiment [11] it was over 100 µM; in [12] it was over 100 µM. The TGI in [13], in experiment [14], in experiment [15], in experiment [16], in [17] and in experiment [18] was over 100 µM in each case. Further, the TGI in [19] and in experiment [20] was over 100 µM in each case.
For `COc1cccc(/C=C2\SC(=S)N(/C=C3\C(=O)Oc4ccccc4C3=O)C2=O)c1O`, the TGI in [1], in experiment [2], in [3], in experiment [4], in experiment [5] and in [6] was over 100 µM each time. Further, the TGI is over 100 µM in [7]; over 100 µM in experiment [8]; over 100 µM in [9]; over 100 µM in experiment [10]; 95.7 µM in [11]; over 100 µM in experiment [12]. The TGI was over 100 µM in [13]; over 100 µM in experiment [14]; over 100 µM in [15]; 48 µM in experiment [16]; 87 µM in experiment [17]; over 100 µM in experiment [18]. In addition, the figures for the TGI in [19] and in experiment [20] were 75.6 µM and over 100 µM, respectively.
